Measurements: article PMC2649372 (Biochemistry, 2008)
Positions count from the first letter of the chain named. Values joined by “and” are separate entries in the source; they are usually repeats but may differ in a detail not shown here. Identical values can stand only once. Marks after values point to notes of the source that are not given here.

Columns and labels:
[1] = molecular target: T1, E129D mutant 5-HT3 receptor (mouse 5-HT3A subunit) (Mus musculus, UniProt P23979, E129D); assay: Granisetron inhibition of 5-HT-induced responses in oocytes; assay type: cell-based; settings: EC50 concentration of 5-HT
T1 sequence (P23979 24-483 isoform P23979-2 E129D limits assumed): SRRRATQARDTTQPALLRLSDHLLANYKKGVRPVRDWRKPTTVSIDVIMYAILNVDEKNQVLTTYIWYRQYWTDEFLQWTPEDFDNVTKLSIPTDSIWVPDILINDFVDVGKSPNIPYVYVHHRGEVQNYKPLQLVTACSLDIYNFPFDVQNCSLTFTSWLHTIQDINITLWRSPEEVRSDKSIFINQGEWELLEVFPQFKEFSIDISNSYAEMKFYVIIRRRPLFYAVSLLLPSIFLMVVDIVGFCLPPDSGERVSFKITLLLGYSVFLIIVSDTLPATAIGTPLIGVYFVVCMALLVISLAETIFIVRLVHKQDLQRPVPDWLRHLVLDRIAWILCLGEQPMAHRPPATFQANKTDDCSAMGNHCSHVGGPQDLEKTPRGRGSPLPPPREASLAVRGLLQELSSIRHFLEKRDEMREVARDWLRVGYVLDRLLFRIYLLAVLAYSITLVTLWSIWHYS

[2] = molecular target: T2, E129N mutant 5-HT3 receptor (mouse 5-HT3A subunit) (Mus musculus, UniProt P23979, E129N); assay: as above; assay type: cell-based; settings: 100 nM granisetron, EC50 concentration of 5-HT
T2 sequence (P23979 24-483 isoform P23979-2 E129N limits assumed): T1 sequence (P23979 24-483 isoform P23979-2 E129D limits assumed) with D106N

[3] = molecular target: T3, WT 5-HT3 receptor (mouse 5-HT3A subunit) (Mus musculus, UniProt P23979); assay: Agonist-induced currents, voltage clamp electrophysiology in Xenopus oocytes; assay type: cell-based; settings: for EC50: oocytes, holding potential −60 mV; for nH (Hill coefficient): WT
T3 sequence (P23979 24-483 isoform P23979-2 limits assumed): T1 sequence (P23979 24-483 isoform P23979-2 E129D limits assumed) with D106E

[4] = molecular target: T4, N128E mutant 5-HT3 receptor (mouse 5-HT3A subunit) (Mus musculus, UniProt P23979, N128E); assay: as above; assay type: cell-based; settings: for nH (Hill coefficient): N128E
T4 sequence (P23979 24-483 isoform P23979-2 N128E limits assumed): T1 sequence (P23979 24-483 isoform P23979-2 E129D limits assumed) with N105E, D106E

[5] = molecular target: T5, N128Q mutant 5-HT3 receptor (mouse 5-HT3A subunit) (Mus musculus, UniProt P23979, N128Q); assay: as above; assay type: cell-based; settings: for nH (Hill coefficient): N128Q
T5 sequence (P23979 24-483 isoform P23979-2 N128Q limits assumed): T1 sequence (P23979 24-483 isoform P23979-2 E129D limits assumed) with N105Q, D106E

[6] = molecular target: T6, N128A mutant 5-HT3 receptor (mouse 5-HT3A subunit) (Mus musculus, UniProt P23979, N128A); assay: as above; assay type: cell-based; settings: for nH (Hill coefficient): N128A
T6 sequence (P23979 24-483 isoform P23979-2 N128A limits assumed): T1 sequence (P23979 24-483 isoform P23979-2 E129D limits assumed) with N105A, D106E

[7] = molecular target: T2, E129N mutant 5-HT3 receptor (mouse 5-HT3A subunit); assay: as above; assay type: cell-based
[8] = molecular target: T7, N128D mutant 5-HT3 receptor (mouse 5-HT3A subunit) (Mus musculus, UniProt P23979, N128D); assay: as above; assay type: cell-based
T7 sequence (P23979 24-483 isoform P23979-2 N128D limits assumed): T1 sequence (P23979 24-483 isoform P23979-2 E129D limits assumed) with N105D, D106E

[9] = molecular target: T1, E129D mutant 5-HT3 receptor (mouse 5-HT3A subunit); assay: as above; assay type: cell-based
[10] = molecular target: E129G mutant 5-HT3 receptor (mouse 5-HT3A subunit) (Mus musculus, UniProt P23979, E129G); assay: Single-point [3H]granisetron binding to solubilized oocyte preparations; settings: 0.5 nM [3H]granisetron
Sequence of E129G mutant 5-HT3 receptor (mouse 5-HT3A subunit) (P23979 24-483 isoform P23979-2 E129G limits assumed): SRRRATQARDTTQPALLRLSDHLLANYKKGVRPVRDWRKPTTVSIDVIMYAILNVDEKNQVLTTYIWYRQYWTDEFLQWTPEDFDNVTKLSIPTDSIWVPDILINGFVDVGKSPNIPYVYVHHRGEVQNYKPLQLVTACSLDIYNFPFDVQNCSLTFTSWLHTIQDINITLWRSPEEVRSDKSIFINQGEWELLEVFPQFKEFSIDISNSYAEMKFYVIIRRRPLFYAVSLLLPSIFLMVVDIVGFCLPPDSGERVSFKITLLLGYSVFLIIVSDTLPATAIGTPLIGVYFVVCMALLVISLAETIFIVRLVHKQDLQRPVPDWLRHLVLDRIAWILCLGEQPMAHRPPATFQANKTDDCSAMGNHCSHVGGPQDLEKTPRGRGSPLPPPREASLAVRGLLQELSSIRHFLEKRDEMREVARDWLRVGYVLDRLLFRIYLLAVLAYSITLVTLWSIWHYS

[11] = molecular target: E129K mutant 5-HT3 receptor (mouse 5-HT3A subunit) (Mus musculus, UniProt P23979, E129K); assay: as above; settings: 0.5 nM [3H]granisetron
Sequence of E129K mutant 5-HT3 receptor (mouse 5-HT3A subunit) (P23979 24-483 isoform P23979-2 E129K limits assumed): as the sequence (P23979 24-483 isoform P23979-2 E129G limits assumed) above, with G106K counted along it

[12] = tested on: Asn128 mutant 5-HT3 receptors; settings: Asn128 mutant receptors in HEK cells; cited from earlier work
[13] = molecular target: E129A mutant 5-HT3 receptor (mouse 5-HT3A subunit) (Mus musculus, UniProt P23979, E129A); assay: Single-point [3H]granisetron binding to solubilized oocyte preparations; settings: 0.5 nM [3H]granisetron
Sequence of E129A mutant 5-HT3 receptor (mouse 5-HT3A subunit) (P23979 24-489 E129A): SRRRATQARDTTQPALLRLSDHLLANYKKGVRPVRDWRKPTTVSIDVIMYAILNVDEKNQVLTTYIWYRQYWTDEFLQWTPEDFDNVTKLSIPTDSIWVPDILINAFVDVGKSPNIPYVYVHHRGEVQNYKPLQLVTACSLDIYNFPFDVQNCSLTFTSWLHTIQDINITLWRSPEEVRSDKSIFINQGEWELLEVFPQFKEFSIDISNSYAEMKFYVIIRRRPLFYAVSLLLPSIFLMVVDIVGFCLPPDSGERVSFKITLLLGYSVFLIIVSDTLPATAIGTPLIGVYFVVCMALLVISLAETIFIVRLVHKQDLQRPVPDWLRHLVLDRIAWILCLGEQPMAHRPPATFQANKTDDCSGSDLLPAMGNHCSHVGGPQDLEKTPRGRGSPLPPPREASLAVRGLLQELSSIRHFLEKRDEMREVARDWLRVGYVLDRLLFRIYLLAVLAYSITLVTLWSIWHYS

[14] = tested on: Glu129 mutant 5-HT3 receptors; settings: any Glu129 mutant receptor in HEK cells; concentrations up to 20 nM; cited from earlier work

SMILES | nH (Hill coefficient) [3] | EC50 ([3]; pEC50, WT) | EC50 [4] | nH (Hill coefficient) [4] | EC50 [5] | nH (Hill coefficient) [5] | EC50 [6] | nH (Hill coefficient) [6] | other results
CN1C2CCCC1CC(NC(=O)c1nn(C)c3ccccc13)C2 (stereo not shown) [granisetron] |  |  |  |  |  |  |  |  | block of the response to 5-HT ([1]; 10 nM granisetron): 80 ± 5% and ~80%; block of the response to 5-HT ([1]; 100 nM granisetron): 96 ± 3%; block of the response to 5-HT [2]: did not block
NCCc1c[nH]c2ccccc12 [tryptamine] | 2.86 ± 0.14 | 117 µM | 59 µM | 2.90 ± 0.53 | 240 µM | 3.10 ± 0.39 | 91 µM | 2.90 ± 0.68 | EC50 ([3]; EC50, WT): 120 µM
NCCc1c[nH]c2ccc(F)cc12 [5-FT, 5-fluorotryptamine] | 2.71 ± 0.24 | 17.8 µM | 13.8 µM | 1.97 ± 0.18 | 94 µM | 2.38 ± 0.58 | 10 µM | 2.34 ± 0.75 | EC50 [7]: 11.7 µM; nH (Hill coefficient) ([7]; E129N): 1.25 ± 0.13 ^b; EC50 [8]: 17.8 µM; nH (Hill coefficient) ([8]; N128D): 2.61 ± 0.28; EC50 [9]: 8.3 µM; nH (Hill coefficient) ([9]; E129D): 1.95 ± 0.30
CN1C2CCCC1CC(NC(=O)c1nn(C)c3ccccc13)C2 (stereo not shown) [[^3H]granisetron] |  |  |  |  |  |  |  |  | specific radioligand binding [10]: No specific radioligand binding; specific radioligand binding [11]: No specific radioligand binding; binding affinity vs WT [12]: no significant differences; specific radioligand binding [13]: No specific radioligand binding; specific binding [14]: no specific binding
